These results are taken from patent US8207157B2, “Methods and compositions for repelling arthropods” (The United States of America, as represented by the …, priority 2006, dated 2012).

In assay [1] the test system is female Aedes aegypti mosquitoes. The assay is described as follows: Non-competitive olfactometer bioassay of absolute attraction to attractants with or without candidate inhibitors. Format: in vivo. Particulars: for Attraction with 50 μL 1-MPZ mean ± SE (%): 3 min; for Attraction Mean ± SE (%): 50 μL heterocycle combined with 500 μL 3-compound attractant blend, line Blend = attractant alone.

Assay [2] has as its system Anopheles albimanus mosquitoes. The assay is described as follows: Competitive (two-port) olfactometer bioassay of attractants and inhibitors. In kind it is in vivo. The conditions noted are these: competing port: B + (1-MPZ) + (4-MM).
Assay [3] relates to female Ae. aegypti. The description is as above. Format: in vivo, Aedes aegypti. The source says:
Mosquitoes choose to fly upwind into a port with the treatment or choose to remain in the cage. It is clear that in competition, these mosquitoes preferred the natural human odors over the blend by about a 5:1 margin.

For `CN1CCNCC1` [1-MPZ, 1-methylpiperazine], the “Attraction with 50 μL 1-MPZ mean ± SE (%)” value in assay [1] (attractant: 1 mL 3-compound blend) turned out to be 12.8 ± 1.8%; in assay [1] (attractant: human arm/hand odor) it was 23.5 ± 3.0%. Besides, the “Attraction mean ± SE (%), Treatment 2” value in assay [2] (port: B + (1-MPZ)) was determined as 9.7 ± 3.3%; in assay [3] (port: B + (1-MPZ), competing port: B + (1-MPZ) + (4-MM)), 5.1 ± 1.1%. The “Total Catch (%)” value in assay [3] (both ports: Human + 1-MPZ (50 μL) vs Blend, 97.2% without 1-MPZ) turned out to be 78.1%. For the same compound, the “Attraction mean ± SE (%), Treatment 1” value is given as 4.6 ± 1.5% in assay [3] (port: B + (1-MPZ), competing port: B + (1-M-4-OPZ)) and 5.4 ± 1.3% in assay [3] (port: B + (1-MPZ), competing port: B + (4-MM)). Further, the “Attraction mean ± SE (%), Treatment with Inhibitor” value in assay [3] (port: Blend + inhibitor (50 μL each), competing port: Blend) came out at 3.4 ± 1.0%; in assay [3] (port: Blend + inhibitor (50 μL each), competing port: RH odors), 0.9 ± 0.3%; in assay [3] (port: RH odors + inhibitor (50 μL each), competing port: Blend), 14.1 ± 2.7%; in assay [3] (port: RH odors + inhibitor (50 μL each), competing port: LH odors) it was 7.7 ± 1.2%. Further, in assay [3] (port: human odor + 50 μL 1-MPZ, competing port: Blend), the “Attraction ± SE (%), Treatment 1 port” value is listed as 29.5 ± 3.2%.
On to `C1CNCCN1` [piperazine], for which the “Attraction Mean ± SE (%)” value in assay [1] stood at 41.4%.
With `OCCN1CCN(CCO)CC1` [1,4-bis(2-hydroxyethyl)piperazine], the “Attraction Mean ± SE (%)” value in assay [1] (listed as 1,4-bis (2-hydroxyethyl)piperazine-2,2′-1,4-diyldiethanol) was found to be 73%.
Take `CCCCCCCCN1CCN(C)CC1` [1M-4-OPZ, 1-methyl-4-octylpiperazine]: the “Attraction mean ± SE (%), Treatment 2” value in assay [3] (port: B + (1-M-4-OPZ), competing port: B + (1-MPZ)) came to 24.5 ± 4.4%.
Turning to `CN1CCOCC1` [4-MM, 4-methylmorpholine], the “Attraction mean ± SE (%), Treatment 2” value in assay [2] (port: B + (4-MM)) is 5.2 ± 2.0%; in assay [3] (port: B + (4-MM), competing port: B + (1-MPZ)) it was 8.0 ± 1.1%; in assay [3] (port: B + (4-MM), competing port: B + (1-MPZ) + (4-MM)) it was 5.1 ± 1.8%.
